We go through 83 molecules from publication PMC12040169 (PLOS Biology, 2025).

Each structure is given as a SMILES string.

The data set is described as follows: in vitro. The settings on record: human, hela cells, % viability.

Regarding `O=C(NC1CN2CCC1CC2)c1ncoc1-c1ccccc1` (centres unmarked) [CBK283888], the viability at 28.5 h, 10 µM is 104%.
The value for `CCn1c(=O)n(CC(=O)NCc2ccccc2F)c2cccnc21` [CBK283890] was 86.8%.
In the case of `CCn1c(=O)n(CC(=O)NCc2cccc(F)c2)c2cccnc21` [CBK283891], the viability at 28.5 h, 10 µM was 86.4%.
Consider `O=C(c1cc(F)cc(F)c1)N1CCC(c2cccnc2)CC1` [CBK283892], for which the viability at 28.5 h, 10 µM is 87.5%.
For the molecule `O=C(Cn1c(=O)n(Cc2cccs2)c2ncccc21)N1CCCC1` [CBK283894], the viability at 28.5 h, 10 µM amounted to 83.6%.
Take `CCn1c(=O)n(CC(=O)N2CCC(C)CC2)c2cccnc21` [CBK283895]: the viability at 28.5 h, 10 µM stood at 95.9%.
The value for `CCn1c(=O)n(CC(=O)N2CCCCC2C)c2cccnc21` (centres unmarked) [CBK283896] was 103%; that for `CCn1c(=O)n(CC(=O)Nc2ccccc2F)c2cccnc21` [CBK283897] was 102%; that for `O=C(Cn1c(=O)n(Cc2cccs2)c2ncccc21)NC1CC1` [CBK283898] was 90.6%.
The value for `O=C(Cn1c(=O)n(Cc2cccs2)c2ncccc21)NCC1CC1` [CBK283899] was 89.3%; that for `CC(C)NC(=O)Cn1c(=O)n(Cc2cccs2)c2ncccc21` [CBK283900] was 83.6%.
Consider `O=c1n(Cc2cccnc2)c2cccnc2n1Cc1cccs1` [CBK283903], for which the viability at 28.5 h, 10 µM stood at 89.7%.
The value for `CN(C)C(=O)Cn1nc(-c2cc3c(s2)CCCC3)oc1=O` [CBK283905] was 98%; that for `O=C1NC2(CCN(C(=O)C(F)(F)F)CC2)Oc2ccccc21` [CBK283906] was 94%.
On to `Cn1c(=O)n(CC(=O)NCc2cccs2)c2cccnc21` [CBK283907], for which the viability at 28.5 h, 10 µM was found to be 90.3%.
The value for `Cn1c(=O)n(CC(=O)NCc2ccccc2F)c2cccnc21` [CBK283909] was 88.1%; that for `O=C(C1=Cc2ccccc2OC1)N1CCn2cc(C(F)(F)F)nc2C1` [CBK283913] was 103%.
For the molecule `O=C(c1ccc(CO)o1)N1CCn2cc(C(F)(F)F)nc2C1` [CBK283914], the viability at 28.5 h, 10 µM was determined as 94%.
The value for `O=C(c1[nH]nc2c1CCCC2)N1CCn2cc(C(F)(F)F)nc2C1` [CBK283915] was 96.7%.
The value for `CCn1cc(C(=O)N2CCn3cc(C(F)(F)F)nc3C2)c(C)n1` [CBK283916] was 93.8%; that for `O=C(NCCCn1ccnc1)c1ncoc1-c1ccccc1F` [CBK283917] was 96%; that for `Cc1ccc(C2=CCN(CC(=O)N3CCc4ccccc43)CC2)o1` [CBK283918] was 88.1%.
The value for `CC1CCCCN1C(=O)CN1C(=O)N2CCN=C2c2ccccc21` (centres unmarked) [CBK283921] was 102%; that for `C#CCNC(=O)C1CCN(c2nc3ccccc3n2CC)CC1` [CBK283923] was 89.4%; that for `C=CCn1c(N2CCC(C(=O)NC3CC3)CC2)nc2ccccc21` [CBK283924] was 86.4%.
`C#CCNC(=O)C1CCN(c2nc3ccccc3n2CC=C)CC1` [CBK283925]: the viability at 28.5 h, 10 µM was determined as 95.4%.
Consider `O=C(N1CCn2cnnc2C1)C1(c2ccccc2)CCCC1` [CBK283926], for which the viability at 28.5 h, 10 µM came to 90.8%.
Regarding `Cc1cc(C)c2c(c1)cc(C)c1nn(CC(=O)N(C)C)c(=O)n12` [CBK283927], the viability at 28.5 h, 10 µM was found to be 96.9%.
The value for `O=C(NC1CCCc2c1cnn2-c1ccc(F)cc1)c1ccncc1` (centres unmarked) [CBK283929] was 91.6%.
For `CCc1cccc2c(CN3CCc4nc(C)[nH]c(=O)c4C3)c[nH]c12` [CBK283931], the viability at 28.5 h, 10 µM came to 94.6%.
Turning to `O=C(C1CC1)N1CCCC1c1nc(-c2ccc(F)cc2)n[nH]1` (centres unmarked) [CBK283934], the viability at 28.5 h, 10 µM amounted to 102%.
In the case of `O=C(CN1CCCCC1)N1CCCC1c1nc2ccccc2[nH]1` (centres unmarked) [CBK283935] it was 104%; in that of `O=C(c1ccccc1F)N1CCC(n2cnc3cccnc32)CC1` [CBK283937], 87.5%; in that of `O=C(c1cccs1)N1CCC(n2cnc3cccnc32)CC1` [CBK283938], 88.4%.
`O=C(c1ccco1)N1CCC(n2cnc3cccnc32)CC1` [CBK283939]: the viability at 28.5 h, 10 µM stood at 91.6%.
The value for `Cn1c(N2CCC(C(=O)NC3CC3)CC2)nc2ccccc21` [CBK283940] was 97.9%; that for `CCn1c(=O)n(CC(=O)N2CCCCCC2)c2cccnc21` [CBK283942] was 97.1%; that for `CCn1c(=O)n(CC(=O)N(C(C)C)C(C)C)c2cccnc21` [CBK283943] was 100%.
The value for `CCN(CC)C(=O)CN1C(=O)N2CCN=C2c2ccccc21` [CBK283944] was 94.9%; that for `Cc1nc2c(c(=O)[nH]1)CN(CC1CCCCC1)CC2` [CBK283947] was 86.7%.
Consider `Cc1nc2c(c(=O)[nH]1)CN(Cc1ccccc1F)CC2` [CBK283948], for which the viability at 28.5 h, 10 µM stood at 89.3%.
For `Cc1nc2c(c(=O)[nH]1)CN(Cc1cccc(Oc3ccccc3)c1)CC2` [CBK283951], the viability at 28.5 h, 10 µM stood at 104%.
The value for `Cc1nc2c(c(=O)[nH]1)CN(Cc1ccc(-c3ccccc3)cc1)CC2` [CBK283952] was 99%; that for `Cc1c(C(=O)N2CCC(C(=O)c3cccnc3)CC2)oc2ccccc12` [CBK283954] was 88.9%; that for `C#CCNC(=O)C1CCN(c2nc3ccccc3n2C)CC1` [CBK283956] was 89.7%.
In the case of `Cn1c(N2CCC(C(=O)NCC3CC3)CC2)nc2ccccc21` [CBK283957] it was 91.6%.
The value for `O=C(CN1C(=O)N2CCN=C2c2ccccc21)NC1CC1` [CBK283958] was 93.1%; that for `O=C(CN1C(=O)N2CCN=C2c2ccccc21)NC1CCCC1` [CBK283959] was 100%.
Turning to `O=C1NC2(CCN(C(=O)C3CCCC3)CC2)Nc2ccccc21` [CBK283962], the viability at 28.5 h, 10 µM turned out to be 94.9%.
In the case of `COCCn1c(=O)n(Cc2ccccc2)c2cccnc21` [CBK283964] it was 91%; in that of `O=c1n(Cc2ccncc2)nc(C(F)(F)F)c2cccn12` [CBK283966], 87%; in that of `Cc1nc2c(c(=O)[nH]1)CCN(Cc1ccc(Cl)c(Cl)c1)C2` [CBK283969], 81.6%.
In the case of `CC1CCCCC1NC(=O)c1ncoc1-c1cccs1` (centres unmarked) [CBK283973] it was 84.8%; in that of `CN(C)C(=O)CN1CC[C@@H](c2ccccc2)[C@H](O)C1` [CBK283979], 83%.
The value for `Cc1cc2c(o1)CCc1sc(N(C)C(=O)C3CC(=O)N(C)C3)nc1-2` (centres unmarked) [CBK283980] was 75.6%; that for `O=C1CCCN1CCC(=O)N1CCCC1c1nc2ccccc2[nH]1` (centres unmarked) [CBK283981] was 84.2%.
As to `Cc1nc2c(c(=O)[nH]1)CN(Cc1c(C)oc3ccccc13)CC2` [CBK283984], the viability at 28.5 h, 10 µM was found to be 94.8%.
Consider `Cn1c(N2CCCC(C(=O)NCC3CC3)C2)nc2ccccc21` (centres unmarked) [CBK283987], for which the viability at 28.5 h, 10 µM was determined as 92.6%.
As for `O=c1[nH]nc2c3ccc(Cl)cc3ncn12` [CBK283988], the viability at 28.5 h, 10 µM turned out to be 62.3%.
In the case of `Cc1nc2c(c(=O)[nH]1)CCN(Cc1cccc(Oc3ccccc3)c1)C2` [CBK283989] it was 81.9%; in that of `C=CCn1c(C)c(CN2CCc3c(nc(C)[nH]c3=O)C2)c2ccccc21` [CBK283990], 88.6%; in that of `Cc1nc2c(c(=O)[nH]1)CCN(Cc1c(C)oc3ccccc13)C2` [CBK283994], 87.8%.
In the case of `Cc1ccc2[nH]c(C3CCCCN3C(=O)c3cscn3)nc2c1` (centres unmarked) [CBK283999] it was 96.6%; in that of `Cc1ccc2[nH]c(C3CCCCN3C(=O)c3ccncc3)nc2c1` (centres unmarked) [CBK284000], 103%.
Consider `c1coc(CN2CCC(c3ccc4c(c3)OCO4)CC2)c1` [CBK284001], for which the viability at 28.5 h, 10 µM was 90.3%.
The value for `CN(C)CCn1nc(-c2cccc(-n3cccc3)c2)oc1=O` [CBK284002] was 94.2%; that for `O=C(CN1CCCC1)N1CCCC1c1nc2ccccc2[nH]1` (centres unmarked) [CBK284003] was 89.4%; that for `Cc1ccc(CN2Cc3cc4ccccc4nc3OC(C)C2=O)o1` (centres unmarked) [CBK284004] was 90.6%.
As for `CC(C)N(C(=O)CN1C(=O)N2CCN=C2c2ccccc21)C(C)C` [CBK284005], the viability at 28.5 h, 10 µM is 87%.
`O=C(c1cccs1)N1CCCC1c1nc2ccccc2[nH]1` (centres unmarked) [CBK284006]: the viability at 28.5 h, 10 µM came out at 81.8%.
As for `COC1CCCC(C(=O)N2CCCC2c2nc3ccccc3[nH]2)C1` (centres unmarked) [CBK284007], the viability at 28.5 h, 10 µM came to 101%.
The value for `CCn1nc2c3ccccc3nc(C3CC3)n2c1=O` [CBK284008] was 68.8%.
On to `Cc1nc2c(c(=O)[nH]1)CN(Cc1ccc(F)cc1)CC2` [CBK284009], for which the viability at 28.5 h, 10 µM was 86.9%.
For `CC(C)N(C(=O)N1CCC2(CC1)CC(=O)c1ccccc1O2)C(C)C` [CBK284010], the viability at 28.5 h, 10 µM turned out to be 90.7%.
In the case of `Cc1ccc(CCC(=O)N2CCCC2c2nc3ccccc3[nH]2)o1` (centres unmarked) [CBK284012] it was 93.3%; in that of `Cc1noc(C)c1C(=O)NC1(c2ccc(F)cc2)CCCC1` [CBK284013], 93.4%.
The value for `Cn1c(C(=O)OCC(=O)NC(C)(C)C)cc2occc21` [CBK284015] was 109%; that for `CC1CCN(CC(=O)NC2CCN(C(C)c3ccccc3)CC2)CC1` (centres unmarked) [CBK284017] was 101%; that for `O=C1C2CCCN2S(=O)(=O)c2ccccc2N1Cc1ccccc1` (centres unmarked) [CBK284018] was 88.6%.
The value for `Cn1c(=O)n(CC(=O)OCc2ccccc2)c2cccnc21` [CBK284019] was 91.1%; that for `CCCNC(=O)Cn1nc(C)n2c(cc3sccc32)c1=O` [CBK284020] was 102%.
Turning to `Cc1nn(CC(=O)NC(C)(C)C)c(=O)c2cc3sccc3n12` [CBK284021], the viability at 28.5 h, 10 µM is 80.9%.
In the case of `Cc1nn(CC(=O)N2CCCC2)c(=O)c2cc3sccc3n12` [CBK284024], the viability at 28.5 h, 10 µM worked out at 95.2%.

In general, viability refers to a read-out of living cells in per cent, often relative to untreated cells.
